Assay results taken from US6030951A, “Chrysomycin derivative compounds and use as antitumor agents” (Mercian Corporation, priority 1996, dated 2000).
In brackets after ≈: the same amount, converted by molar mass. Read-outs that look alike come from different tables or passages of the source.

Legend:
solid cancer cells = experiment: Growth-inhibiting activity against cultured solid cancer cells; assay type: cell-based, human; conditions: for effectiveness against cells derived from tumors, particularly solid cancers: colic, mammary, pulmonary and gastric cancer, mammals, in particular human
Description: (§1) Using various human cancer cells, the concentrations of test compounds which inhibits the growth of cancer cells by 50% were determined. Specifically, each of K562 (leukemic cell), HT29 (colic cancer), HT1080 (reticulogranuloma cell), MCF7 (mammary cancer cell), PC6 (pulmonary cancer cell) and MKN28 (gastric cancer cell) was added to a 96-well microtiter/plate at a density of 2-5×10^3 cells per well, and RPM11640 medium (phenol red-free) containing 10% FBS, together with a test compound, was added thereto. Then, this plate was incubated at 37° C. for 3 days in an atmosphere of air containing 5% CO2. Thereafter, 10 μl of WST-1 reagent [0.065% 2-(4-iodophenyl)-3-(4-nitrophenyl)-5-(2,4-disulfonyl)-2H-tetrazolium monosodium salt, 0.007% 1-methoxy-5-methylphenazium methylsulfate] was added to each well, and the plate was further incubated for 3 hours. Then, the absorbance of each well at 450 nm (with a reference wavelength of 650 nm) was measured with a plate reader.

HT29 (colic cancer) = experiment: Inhibition of growth of human cancer cells (WST-1, 3 days); assay type: cell-based; conditions: HT-29, 72 h, read-out: IC50 value
Description: as §1

K562 (leukemic cell) = experiment: as above; assay type: cell-based; conditions: read-out: IC50 value
Description: as §1

[1] = test system: PC6 (pulmonary cancer cell); experiment: as above; assay type: cell-based; conditions: 72 h, read-out: IC50 value
Description: as §1

[2] = test system: MKN28 (gastric cancer cell); experiment: as above; assay type: cell-based; conditions: MKN-28, 72 h, read-out: IC50 value
Description: as §1

[3] = test system: MCF7 (mammary cancer cell); experiment: as above; assay type: cell-based; conditions: read-out: IC50 value
Description: as §1

tumor cells = experiment: Growth-inhibiting activity against various types of tumor cells; assay type: cell-based, human; conditions: as compared with chrysomycins
Description: as §1

[4] = organic solvents such as chloroform, acetone and methanol

SMILES	IC50 (HT29 (colic cancer); HT29, 3 days, 37° C.) [µg/mL]	IC50 (K562 (leukemic cell); 72 h, K562, 3 days, 37° C.) [µg/mL]	IC50 ([1]; PC6, 3 days, 37° C.) [µg/mL]	IC50 ([2]; MKN28, 3 days, 37° C.) [µg/mL]	IC50 ([3]; 72 h, MCF7, 3 days, 37° C.) [µg/mL]	Solubility (Solubility; [4])	Solubility (Solubility; water)	effectiveness against cells derived from tumors, particularly solid cancers (solid cancer cells)	IC50 (HT29 (colic cancer)) [µg/mL]	IC50 (K562 (leukemic cell); K562, 72 h) [µg/mL]	IC50 [1] [µg/mL]	IC50 [2] [µg/mL]	IC50 ([3]; MCF7, 72 h) [µg/mL]	growth-inhibiting activity against all types of cultured solid cancers used for testing (solid cancer cells; all types tested)	growth-inhibiting activity against various types of tumor cells (tumor cells)
C=Cc1cc(OC)c2c(c1)c(=O)oc1c2cc(OC)c2c(O)ccc(C3OC(C)C(=O)C(C)(O)C3O)c21 (stereo not drawn) [Mer-1020dC]	0.1 (≈ 0.197 µM)	0.11 (≈ 0.217 µM)	0.03 (≈ 0.0592 µM)	0.32 (≈ 0.632 µM)	0.42 (≈ 0.829 µM)	Soluble	insoluble	remarkable effectiveness	–	–	–	–	–	–	–
C=Cc1cc(OC)c2c(c1)c(=O)oc1c2cc(OC)c2c(O)ccc(C3OC(C)C(O)C(C)(O)C3O)c21 (stereo not drawn) [Chrysomycin A, reference compound]	–	–	–	–	–	–	–	–	0.84 (≈ 1.65 µM)	0.106 (≈ 0.208 µM)	0.335 (≈ 0.659 µM)	0.144 (≈ 0.283 µM)	0.53 (≈ 1.04 µM)	–	–
C=Cc1cc(OC)c2c(c1)c(=O)oc1c2cc(OC)c2c(O)ccc(C3OC(C)C(O)(C(C)=O)C3O)c21 (stereo not drawn) [Mer-1020dD]	0.15 (≈ 0.296 µM)	0.21 (≈ 0.415 µM)	2.5 (≈ 4.94 µM)	1 (≈ 1.97 µM)	0.6 (≈ 1.18 µM)	Soluble	insoluble	remarkable effectiveness	–	–	–	–	–	–	–
COc1cc2c(oc(=O)c3cc(C)cc(OC)c32)c2c(C3OC(C)C(O)C(C)(O)C3O)ccc(O)c12 (stereo not drawn) [Chrysomycin B, reference compound]	2.63 (≈ 5.3 µM)	1.76 (≈ 3.54 µM)	3.5 (≈ 7.05 µM)	2.65 (≈ 5.34 µM)	2.58 (≈ 5.2 µM)	–	–	–	–	–	–	–	–	–	–
COc1cc2c(oc(=O)c3cc(C)cc(OC)c32)c2c(C3OC(C)C(=O)C(C)(O)C3O)ccc(O)c12 (stereo not drawn) [Mer-1020dB]	0.35 (≈ 0.708 µM)	0.28 (≈ 0.566 µM)	0.11 (≈ 0.222 µM)	0.35 (≈ 0.708 µM)	0.35 (≈ 0.708 µM)	Soluble	insoluble	remarkable effectiveness	–	–	–	–	–	–	–

Now from value to compound, other results behind:

IC50 (HT29 (colic cancer); HT29, 3 days, 37° C.) [µg/mL]	IC50 (K562 (leukemic cell); 72 h, K562, 3 days, 37° C.) [µg/mL]	IC50 ([1]; PC6, 3 days, 37° C.) [µg/mL]	IC50 ([2]; MKN28, 3 days, 37° C.) [µg/mL]	IC50 ([3]; 72 h, MCF7, 3 days, 37° C.) [µg/mL]	Solubility (Solubility; [4])	Solubility (Solubility; water)	SMILES	effectiveness against cells derived from tumors, particularly solid cancers (solid cancer cells)	IC50 (HT29 (colic cancer)) [µg/mL]	IC50 (K562 (leukemic cell); K562, 72 h) [µg/mL]	IC50 [1] [µg/mL]	IC50 [2] [µg/mL]	IC50 ([3]; MCF7, 72 h) [µg/mL]	growth-inhibiting activity against all types of cultured solid cancers used for testing (solid cancer cells; all types tested)	growth-inhibiting activity against various types of tumor cells (tumor cells)
0.075 (≈ 0.152 µM)	0.36 (≈ 0.728 µM)	0.064 (≈ 0.129 µM)	0.017 (≈ 0.0344 µM)	0.032 (≈ 0.0647 µM)	Soluble	insoluble	COc1cc2c(oc(=O)c3cc(C)cc(OC)c32)c2c(C3OC(C)C(O)(C(C)=O)C3O)ccc(O)c12 (stereo not drawn) [Mer-1020dA]	remarkable effectiveness	–	–	–	–	–	significantly excellent growth-inhibiting activity	–
19 (≈ 56.5 µM)	8.1 (≈ 24.1 µM)	34 (≈ 101 µM)	11 (≈ 32.7 µM)	17 (≈ 50.5 µM)	Soluble	insoluble	COc1cc2c(oc(=O)c3cc(C)cc(OC)c32)c2cccc(O)c12 [Mer-1020dE]	–	–	–	–	–	–	–	lower as compared with chrysomycins
